Test results published in patent publication US6096930A, “Herbicidal cyclohexane-1,3-dione derivatives and their preparation process” (Korea Research Institute of Chemical Technology, priority 1994, dated 2000).

What was measured:
Format in all cases: in vivo
ABUTH [1] = test: Herbicidal activity, upland test, pre-emergence
Procedure: (§1) The sterilized sandy loam soil is filled in test pot having a surface area of 348 cm^2 for upland test conditions or 115 cm^2 for paddy test species were planted in furrows.
(§2) For the pre-emergent tests, were sprayed on the soil one day after planting test compound in a mixture of acetone and 7 ml of the water containing up to 0.1% Tween 20.
(§3) The concentration of the test compound in solution was varied to give a range of application rates, generally 4.0 kg/ha and submultiples thereof. The pots were placed in a greenhouse and watered regularly at the soil surface for 21 days and herbicidal effects were visually rated by a percent control.
(§4) The herbicidal activity data were taken visually by percent control, wherein 0 signifies no herbicidal effect and 100 signifies complete kill.

AESIN = test: Herbicidal activity, upland test, pre-emergence
Procedure: as §1, §2, §3, §4

BROJA = test: Herbicidal activity, upland test, pre-emergence
Procedure: as §1, §2, §3, §4

DIGSA = test: Herbicidal activity, upland test, pre-emergence
Procedure: as §1, §2, §3, §4

ECHOR = test: Herbicidal activity, upland test, pre-emergence
Procedure: as §1, §2, §3, §4

GLXMX = test: Herbicidal activity, upland test, pre-emergence
Procedure: as §1, §2, §3, §4

GOSHI = test: Herbicidal activity, upland test, pre-emergence
Procedure: as §1, §2, §3, §4

ORYSA = test: Herbicidal activity, upland test, pre-emergence
Procedure: as §1, §2, §3, §4

PANDI = test: Herbicidal activity, upland test, pre-emergence
Procedure: as §1, §2, §3, §4

SOLNI = test: Herbicidal activity, upland test, pre-emergence
Procedure: as §1, §2, §3, §4

SORBI = test: Herbicidal activity, upland test, pre-emergence
Procedure: as §1, §2, §3, §4

TRZAW = test: Herbicidal activity, upland test, pre-emergence
Procedure: as §1, §2, §3, §4

ZEAMX = test: Herbicidal activity, upland test, pre-emergence
Procedure: as §1, §2, §3, §4

ABUTH [2] = test: Herbicidal activity, upland test, post-emergence
Excerpt: as §1
The pots for the post-emergent tests were placed in a greenhouse and watered for 9~14 days, then the foliage of test plants was sprayed with a solution of the test compound in a mixture of acetone and water containing a small amount of Tween 20.
After spraying the plants were kept for one day, then watered regularly for 14 to 21 days, and herbicidal activity data were recorded.
as §4

Q: How did the “Herbicidal activity, ABUTH” value (ABUTH [1]; 0.016 kg/ha) turn out when `CCON=C(CC)C1=C(O)CC(c2c(C)c(C)c3c(c2C)CC(C)(C)C3)CC1=O` (centres unmarked) [Compound 2] was run?
A: Its value is 0 % inhibition.

Q: And the “Herbicidal activity, ABUTH” value (ABUTH [1]; 0.063 kg/ha)?
A: Its value is 0 % inhibition.

Q: And the “Herbicidal activity, ABUTH” value (ABUTH [1]; 1.000 kg/ha)?
A: Its value is 0 % inhibition.

Q: What about the “Herbicidal activity, ABUTH” value (ABUTH [1]; 1.250 kg/ha) of the same compound?
A: The value was 0 % inhibition.

Q: What about the “Herbicidal activity, AESIN” value (AESIN; 0.016 kg/ha) of the same compound?
A: The value was 0 % inhibition.

Q: And the “Herbicidal activity, AESIN” value (AESIN; 0.063 kg/ha)?
A: The value was 0 % inhibition.

Q: And the “Herbicidal activity, AESIN” value (AESIN; 1.000 kg/ha)?
A: The value was 0 % inhibition.

Q: What about the “Herbicidal activity, AESIN” value (AESIN; 1.250 kg/ha) of the same compound?
A: Its value is 0 % inhibition.

Q: What about the “Herbicidal activity, BROJA” value (BROJA; 0.016 kg/ha) of the same compound?
A: The value was 0 % inhibition.

Q: And the “Herbicidal activity, BROJA” value (BROJA; 0.063 kg/ha)?
A: The value was 20 % inhibition.

Q: And the “Herbicidal activity, BROJA” value (BROJA; 1.000 kg/ha)?
A: Its value is 100 % inhibition.

Q: And the “Herbicidal activity, BROJA” value (BROJA; 1.250 kg/ha)?
A: Its value is 60 % inhibition.

Q: And the “Herbicidal activity, DIGSA” value (DIGSA; 0.016 kg/ha)?
A: Its value is 0 % inhibition.

Q: And the “Herbicidal activity, DIGSA” value (DIGSA; 0.063 kg/ha)?
A: The value was 60 % inhibition.

Q: What about the “Herbicidal activity, DIGSA” value (DIGSA; 1.000 kg/ha) of the same compound?
A: Its value is 100 % inhibition.

Q: And the “Herbicidal activity, DIGSA” value (DIGSA; 1.250 kg/ha)?
A: Its value is 100 % inhibition.

Q: What about the “Herbicidal activity, ECHOR” value (ECHOR; 0.016 kg/ha) of the same compound?
A: Its value is 0 % inhibition.

Q: And the “Herbicidal activity, ECHOR” value (ECHOR; 0.063 kg/ha)?
A: The value was 40 % inhibition.

Q: What about the “Herbicidal activity, ECHOR” value (ECHOR; 1.000 kg/ha) of the same compound?
A: Its value is 100 % inhibition.

Q: And the “Herbicidal activity, ECHOR” value (ECHOR; 1.250 kg/ha)?
A: The value was 100 % inhibition.

Q: And the “Herbicidal activity, GLXMX” value (GLXMX; 0.016 kg/ha)?
A: The value was 0 % inhibition.

Q: And the “Herbicidal activity, GLXMX” value (GLXMX; 0.063 kg/ha)?
A: Its value is 0 % inhibition.

Q: And the “Herbicidal activity, GLXMX” value (GLXMX; 1.000 kg/ha)?
A: Its value is 0 % inhibition.

Q: What about the “Herbicidal activity, GLXMX” value (GLXMX; 1.250 kg/ha) of the same compound?
A: The value was 0 % inhibition.

Q: And the “Herbicidal activity, GOSHI” value (GOSHI; 0.016 kg/ha)?
A: Its value is 0 % inhibition.

Q: And the “Herbicidal activity, GOSHI” value (GOSHI; 0.063 kg/ha)?
A: The value was 0 % inhibition.

Q: What about the “Herbicidal activity, GOSHI” value (GOSHI; 1.000 kg/ha) of the same compound?
A: The value was 0 % inhibition.

Q: What about the “Herbicidal activity, GOSHI” value (GOSHI; 1.250 kg/ha) of the same compound?
A: Its value is 0 % inhibition.

Q: And the “Herbicidal activity, ORYSA” value (ORYSA; 0.016 kg/ha)?
A: Its value is 0 % inhibition.

Q: And the “Herbicidal activity, ORYSA” value (ORYSA; 0.063 kg/ha)?
A: Its value is 0 % inhibition.

Q: And the “Herbicidal activity, ORYSA” value (ORYSA; 1.000 kg/ha)?
A: The value was 100 % inhibition.

Q: What about the “Herbicidal activity, ORYSA” value (ORYSA; 1.250 kg/ha) of the same compound?
A: The value was 60 % inhibition.

Q: What about the “Herbicidal activity, PANDI” value (PANDI; 0.016 kg/ha) of the same compound?
A: Its value is 0 % inhibition.

Q: And the “Herbicidal activity, PANDI” value (PANDI; 0.063 kg/ha)?
A: Its value is 50 % inhibition.

Q: And the “Herbicidal activity, PANDI” value (PANDI; 1.000 kg/ha)?
A: The value was 100 % inhibition.

Q: What about the “Herbicidal activity, PANDI” value (PANDI; 1.250 kg/ha) of the same compound?
A: The value was 100 % inhibition.

Q: What about the “Herbicidal activity, SOLNI” value (SOLNI; 0.016 kg/ha) of the same compound?
A: The value was 0 % inhibition.

Q: And the “Herbicidal activity, SOLNI” value (SOLNI; 0.063 kg/ha)?
A: The value was 0 % inhibition.

Q: And the “Herbicidal activity, SOLNI” value (SOLNI; 1.000 kg/ha)?
A: The value was 0 % inhibition.

Q: What about the “Herbicidal activity, SOLNI” value (SOLNI; 1.250 kg/ha) of the same compound?
A: The value was 0 % inhibition.

Q: And the “Herbicidal activity, SORBI” value (SORBI; 0.016 kg/ha)?
A: The value was 0 % inhibition.

Q: And the “Herbicidal activity, SORBI” value (SORBI; 0.063 kg/ha)?
A: The value was 0 % inhibition.

Q: What about the “Herbicidal activity, SORBI” value (SORBI; 1.000 kg/ha) of the same compound?
A: Its value is 100 % inhibition.

Q: And the “Herbicidal activity, SORBI” value (SORBI; 1.250 kg/ha)?
A: The value was 30 % inhibition.

Q: What about the “Herbicidal activity, TRZAW” value (TRZAW; 0.016 kg/ha) of the same compound?
A: The value was 0 % inhibition.

Q: What about the “Herbicidal activity, TRZAW” value (TRZAW; 0.063 kg/ha) of the same compound?
A: The value was 0 % inhibition.

Q: And the “Herbicidal activity, TRZAW” value (TRZAW; 1.000 kg/ha)?
A: The value was 80 % inhibition.

Q: What about the “Herbicidal activity, TRZAW” value (TRZAW; 1.250 kg/ha) of the same compound?
A: The value was 20 % inhibition.

Q: And the “Herbicidal activity, ZEAMX” value (ZEAMX; 0.016 kg/ha)?
A: Its value is 0 % inhibition.

Q: What about the “Herbicidal activity, ZEAMX” value (ZEAMX; 0.063 kg/ha) of the same compound?
A: The value was 0 % inhibition.

Q: And the “Herbicidal activity, ZEAMX” value (ZEAMX; 1.000 kg/ha)?
A: The value was 100 % inhibition.

Q: What about the “Herbicidal activity, ZEAMX” value (ZEAMX; 1.250 kg/ha) of the same compound?
A: The value was 40 % inhibition.

Q: And the “Herbicidal activity, ABUTH” value (ABUTH [2]; 0.004 kg/ha)?
A: Its value is 0 % inhibition.

Q: And the “Herbicidal activity, ABUTH” value (ABUTH [2]; 0.016 kg/ha)?
A: The value was 0 % inhibition.

Q: What about the “Herbicidal activity, ABUTH” value (ABUTH [2]; 0.063 kg/ha) of the same compound?
A: Its value is 0 % inhibition.

Q: And the “Herbicidal activity, ABUTH” value (ABUTH [2]; 1.000 kg/ha)?
A: Its value is 0 % inhibition.
